Measurements from article PMC4598760 (Biomolecules, 2015).
Read-outs that look alike come from different tables or passages of the source.

Key:
[1] = system: hemagglutinin (HA) on immobilized influenza virus A/Mem71 (H3N1); assay type: binding, influenza A virus A/Memphis/1971
[2] = system: influenza virus A/Mem71 (H3N1); conditions: for Kd: read-out: K*d (apparent)
[3] = system: A/Philippines/2/82/X-79 (A/Philips, H3N2)
[4] = system: A/Udorn/307/1972 (A/Udorn72, H3N2)

In the case of CC(=O)N[C@H]1[C@H]([C@H](O)[C@H](O)CO)O[C@@](O[C@H]2[C@@H](O)[C@@H](CO)O[C@@H](O[C@H]3[C@H](O)[C@@H](O)C(O)O[C@@H]3CO)[C@@H]2O)(C(=O)O)C[C@@H]1O (stereo partly drawn) [α2-3 sialyllactose (OS-11), α2-3-sialyllactose], the Kd [1] is reported as 26.3 mM, the Koff [1] is reported as 0.0736 s⁻¹ and the Kd ([1]; monovalent, 288 K) is reported as 2.6 mM. It also gave a Kd ([1]; monovalent, 293 K) of 6.4 mM and a Kd ([1]; monovalent, 296 K) of 18.8 mM.

For CC(=O)N[C@H]1[C@H]([C@H](O)[C@H](O)CO)O[C@@](OC[C@H]2O[C@@H](O[C@H]3[C@H](O)[C@@H](O)C(O)O[C@@H]3CO)[C@H](O)[C@@H](O)[C@H]2O)(C(=O)O)C[C@@H]1O (stereo partly drawn) [α2-6 sialyllactose (OS-21), α2-6-sialyllactose], the Kd [1] was 47.6 mM, the Koff [1] was 0.128 s⁻¹ and the Kd ([1]; monovalent, 288 K) was 6.8 mM. It also gave a Kd ([1]; monovalent, 293 K) of 11.2 mM and a Kd ([1]; monovalent, 296 K) of 23.8 mM.

With Kdnα2-6Galβ1-4Glcβ-Biotin [OS-19] the “virus binding to surface-bound glycan (in words)” value [2] was “does not bind”.

Neu5Acα2-3Galβ1-4Glcβ-Biotin [OS-11] was tested, and the “K*off (apparent)” value [2] was 4.1e-06 s⁻¹, the “K*on (apparent)” value [2] was 7200 M⁻¹ s⁻¹ and the Kd [2] was 0.58 nM.

For Neu5Acα2-6GalNAcα-Biotin [OS-18], the “virus binding to surface-bound glycan (in words)” value [2] was “binds”.

Neu5Acα2-6Galβ1-4Glcβ-Biotin [OS-21] was tested, and the “K*off (apparent)” value [2] was under 3e-06 s⁻¹, the “K*on (apparent)” value [2] was 7000 M⁻¹ s⁻¹ and the Kd [2] was under 0.43 nM.

For Neu5Gcα2-6Galβ1-4Glcβ-Biotin [OS-20], the “virus binding to surface-bound glycan (in words)” value [3] was “do not” and the “virus binding to surface-bound glycan (in words)” value [4] was “binds”.
